In patent US9428464B2, “Kynurenine-3-monooxygenase inhibitors, pharmaceutical compositions, and methods of use thereof” (CHDI Foundation, Inc., priority 2011, dated 2016):

Test system: KMO
Test: KMO activity assay: L-Kynurenine hydroxylation to 3-Hydroxy-Kynurenine, quantified by LC/MS
Assay type: biochemical
Conditions: compound at 10 uM; footnote: some portion of activity of amides may be due to contribution of acid precursor
Outline: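 Enzyme: KMO from mitochondria isolated from CHO cells expressing GST-His-KMO, with L-kynurenine as substrate (stock 10 mM in 100 mM potassium phosphate, pH 7.4). Conversion to 3-hydroxy-kynurenine quantified by LC/MS multiple reaction monitoring; compound stocks 10 mM in DMSO.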

Row | SMILES | % Inhibition at 10 uM [%]
1 | O=C(Nc1ccc(OCCN2CCOCC2)cc1)c1cc(-c2ccc(Cl)c(Cl)c2)ncn1 [6-(3,4-Dichloro-phenyl)-pyrimidine-4-carboxylic acid [4-(2-morpholin-4-yl-ethoxy)-phenyl]-amide] | 100.44
2 | CN1CCN(c2ccc(NC(=O)c3cc(-c4ccc(Cl)c(Cl)c4)ncn3)cc2)CC1.Cl [6-(3,4-Dichloro-phenyl)-pyrimidine-4-carboxylic acid [4-(4-methyl-piperazin-1-yl)-phenyl]-amide hydrochloride salt] | 89.6
3 | CC(C)(O)c1nnc(NC(=O)c2cc(-c3ccc(Cl)c(Cl)c3)ncn2)o1 [6-(3,4-Dichloro-phenyl)-pyrimidine-4-carboxylic acid [5-(1-hydroxy-1-methyl-ethyl)-[1,3,4]oxadiazol-2-yl]-amide] | 102.115
4 | Cl.O=C(Nc1ccc(OCCN2CCOCC2)nc1)c1cc(-c2ccc(Cl)c(Cl)c2)ncn1 [6-(3,4-Dichloro-phenyl)-pyrimidine-4-carboxylic acid [6-(2-morpholin-4-yl-ethoxy)-pyridin-3-yl]-amide hydrochloride salt] | 86.37
5 | CNC(=O)c1cc(-c2ccc(Cl)c(Cl)c2)ncn1 [6-(3,4-Dichloro-phenyl)-pyrimidine-4-carboxylic acid methylamide] | 100.31
6 | O=C(Nc1ncco1)c1cc(-c2ccc(Cl)c(Cl)c2)ncn1 [6-(3,4-Dichloro-phenyl)-pyrimidine-4-carboxylic acid oxazol-2-yl-amide] | 101.04
7 | O=C(Nc1cnccn1)c1cc(-c2ccc(Cl)c(Cl)c2)ncn1 [6-(3,4-Dichloro-phenyl)-pyrimidine-4-carboxylic acid pyrazin-2-yl-amide] | 100.28
8 | O=C(Nc1cccnn1)c1cc(-c2ccc(Cl)c(Cl)c2)ncn1 [6-(3,4-Dichloro-phenyl)-pyrimidine-4-carboxylic acid pyridazin-3-yl-amide] | 100.38
9 | Cc1nc(C(=O)O)cc(-c2ccc(F)c(F)c2)n1 [6-(3,4-Difluoro-phenyl)-2-methyl-pyrimidine-4-carboxylic acid] | 100
10 | C[C@H](NC(=O)c1cc(-c2ccc(F)c(F)c2)ncn1)c1ccccc1 [6-(3,4-Difluoro-phenyl)-pyrimidine-4-carboxylic acid ((S)-1-phenyl-ethyl)-amide] | 100.39
11 | CON(C)C(=O)c1cc(-c2ccc(Cl)c(Cl)c2)ncn1 [6-(3,4-dichloro-phenyl)-pyrimidine-4-carboxylic acid methoxy-methyl-amide] | 103.74
12 | O=C(O)c1ncnc(-c2ccc(Cl)c(Cl)c2)c1CO [6-(3,4-dichlorophenyl)-5-(hydroxymethyl)pyrimidine-4-carboxylate] | 95
13 | O=C(NO)c1cc(-c2ccc(Cl)c(Cl)c2)ncn1 [6-(3,4-dichlorophenyl)-N-hydroxypyrimidine-4-carboxamide] | 73
14 | Cc1nnc(NC(=O)c2cc(-c3cccc(Br)c3)ncn2)o1 [6-(3-Bromo-phenyl)-pyrimidine-4-carboxylic acid (5-methyl-[1,3,4]oxadiazol-2-yl)-amide] | 102.59
15 | O=C(O)c1cc(-c2cccc(Br)c2)ncn1 [6-(3-Bromo-phenyl)-pyrimidine-4-carboxylic acid] | 102.1
16 | O=C(Nc1cccnc1)c1cc(-c2cccc(Cl)c2F)ncn1 [6-(3-Chloro-2-fluoro-phenyl)-pyrimidine-4-carboxylic acid pyridin-3-yl-amide] | 100.83
17 | C[C@H](NC(=O)c1cc(-c2ccc(F)c(Cl)c2)ncn1)c1ccccc1 [6-(3-Chloro-4-fluoro-phenyl)-pyrimidine-4-carboxylic acid ((S)-1-phenyl-ethyl)-amide] | 89.07
18 | Cc1noc(C)c1NC(=O)c1cc(-c2cccc(Cl)c2)ncn1 [6-(3-Chloro-phenyl)-pyrimidine-4-carboxylic acid (3,5-dimethyl-isoxazol-4-yl)-amide] | 89.92
19 | C[C@H](NC(=O)c1cc(-c2cccc(Cl)c2)ncn1)c1ccncc1 [6-(3-Chloro-phenyl)-pyrimidine-4-carboxylic acid ((S)-1-pyridin-4-yl-ethyl)-amide] | 96.86
20 | C[C@H](NC(=O)c1cc(-c2cccc(F)c2)ncn1)c1ccccc1 [6-(3-Fluoro-phenyl)-pyrimidine-4-carboxylic acid ((S)-1-phenyl-ethyl)-amide] | 90.15
21 | O=C(Nc1cncnc1)c1cc(-c2cccc(F)c2)ncn1 [6-(3-Fluoro-phenyl)-pyrimidine-4-carboxylic acid pyrimidin-5-yl-amide] | 81.88
22 | Cc1ccc(NC(=O)c2cc(-c3ccc(Cl)c(F)c3)ncn2)c(C)n1 [6-(4-Chloro-3-fluoro-phenyl)-pyrimidine-4-carboxylic acid (2,6-dimethyl-pyridin-3-yl)-amide] | 52.81

Row | SMILES | % Inhibition at 10 uM [%]
23 | C[C@H](NC(=O)c1cc(-c2ccc(Cl)c(F)c2)ncn1)c1ccccc1 [6-(4-Chloro-3-fluoro-phenyl)-pyrimidine-4-carboxylic acid ((S)-1-phenyl-ethyl)-amide] | 46.62
24 | C[C@H](NC(=O)c1cc(-c2ccc(Cl)cc2)ncn1)c1ccccc1 [6-(4-Chloro-phenyl)-pyrimidine-4-carboxylic acid ((S)-1-phenyl-ethyl)-amide] | 68.94
25 | O=C(Nc1cccnc1)c1cc(-c2ccc(Cl)cc2)ncn1 [6-(4-Chloro-phenyl)-pyrimidine-4-carboxylic acid pyridin-3-yl-amide] | 67.93
26 | O=C(Nc1cncnc1)c1cc(-c2ccc(Cl)cc2)ncn1 [6-(4-Chloro-phenyl)-pyrimidine-4-carboxylic acid pyrimidin-5-ylamide] | 56.49
27 | C[C@H](NC(=O)c1cc(-c2cc(Cl)ccc2F)ncn1)c1ccccc1 [6-(5-Chloro-2-fluoro-phenyl)-pyrimidine-4-carboxylic acid ((S)-1-phenyl-ethyl)-amide] | 68.66
28 | O=C(Nc1cccnc1)c1cc(-c2cc(Cl)ccc2F)ncn1 [6-(5-Chloro-2-fluoro-phenyl)-pyrimidine-4-carboxylic acid pyridin-3-yl-amide] | 84.21
29 | O=C(O)c1cc(-c2ccc3ccccc3c2)ncn1 [6-Naphthalen-2-yl-pyrimidine-4-carboxylic acid] | 96
30 | N[C@@H](CCCCNC(=O)c1cc(-c2ccc(Cl)c(Cl)c2)ncn1)C(=O)O [(2S)-2-amino-6-{[6-(3,4-dichlorophenyl)pyrimidin-4-yl]formamido}hexanoic acid] | 85
31 | O=C1NC(=O)[C@@H]2CN(C(=O)c3cc(-c4ccc(Cl)c(Cl)c4)ncn3)C[C@H]12 [(3aS,6aR)-5-[6-(3,4-Dichloro-phenyl)-pyrimidine-4-carbonyl]-tetrahydro-pyrrolo[3,4-c]pyrrole-1,3-dione] | 95.73
32 | O=C(c1cc(-c2ccc(Cl)c(Cl)c2)ncn1)N1CCc2ccc(Cl)cc21 [(6-Chloro-2,3-dihydro-indol-1-yl)-[6-(3,4-dichloro-phenyl)-pyrimidin-4-yl]-methanone] | 98.22
33 | N[C@H]1CCN(C(=O)c2cc(-c3ccc(Cl)c(Cl)c3)ncn2)C1 [((S)-3-amino-pyrrolidin-1-yl)-[6-(3,4-dichloro-phenyl)-pyrimidin-4-yl]-methanone] | 93.99
34 | NC(=O)[C@H]1CCCN1C(=O)c1cc(-c2ccc(Cl)c(Cl)c2)ncn1 [(R)-1-[6-(3,4-Dichloro-phenyl)-pyrimidine-4-carbonyl]-pyrrolidine-2-carboxylic acid amide] | 101
35 | O=C(N[C@H](CO)C(=O)O)c1cc(-c2ccc(Cl)c(Cl)c2)ncn1 [(R)-2-{[6-(3,4-Dichloro-phenyl)-pyrimidine-4-carbonyl]-amino}-3-hydroxy-propionic acid] | 91.12
36 | NC(=O)[C@@H]1CCCN1C(=O)c1cc(-c2ccc(Cl)c(Cl)c2)ncn1 [(S)-1-[6-(3,4-Dichloro-phenyl)-pyrimidine-4-carbonyl]-pyrrolidine-2-carboxylic acid amide] | 99.05
37 | O=C(N[C@@H](CO)C(=O)O)c1cc(-c2ccc(Cl)c(Cl)c2)ncn1 [(S)-2-{[6-(3,4-Dichloro-phenyl)-pyrimidine-4-carbonyl]-amino}-3-hydroxy-propionic acid] | 101.22
38 | C[C@H](NC(=O)c1cc(-c2ccc(Cl)c(Cl)c2)ncn1)C(=O)O [(S)-2-{[6-(3,4-Dichloro-phenyl)-pyrimidine-4-carbonyl]-amino}-propionic acid] | 100.865
39 | O=S(=O)(Nc1cc(-c2ccc(Cl)c(Cl)c2)ccn1)c1ccccc1 [N-[4-(3,4-dichlorophenyl)pyridin-2-yl]benzenesulfonamide] | 17
40 | Cc1ccc(S(=O)(=O)Nc2cc(-c3ccc(Cl)c(Cl)c3)ncn2)c(C)c1 [N-[6-(3,4-dichlorophenyl)pyrimidin-4-yl]-2,4-dimethylbenzene-1-sulfonamide] | 56
41 | O=S(=O)(Nc1cc(-c2ccc(Cl)c(Cl)c2)ncn1)c1ccccc1F [N-[6-(3,4-dichlorophenyl)pyrimidin-4-yl]-2-fluorobenzene-1-sulfonamide] | 103
42 | O=S(=O)(Nc1cc(-c2ccc(Cl)c(Cl)c2)ncn1)c1cccc(OC(F)(F)F)c1 [N-[6-(3,4-dichlorophenyl)pyrimidin-4-yl]-3-(trifluoromethoxy)benzene-1-sulfonamide] | 100
43 | O=S(=O)(Nc1cc(-c2ccc(Cl)c(Cl)c2)ncn1)c1cccc(F)c1 [N-[6-(3,4-dichlorophenyl)pyrimidin-4-yl]-3-fluorobenzene-1-sulfonamide] | 102
44 | CN(c1cc(-c2ccc(Cl)c(Cl)c2)ncn1)S(=O)(=O)c1ccccc1 [N-[6-(3,4-dichlorophenyl)pyrimidin-4-yl]-N-methylbenzenesulfonamide] | 27
